Non-standard residues stand in square brackets, D forms with d. Residues, ends and D or L forms follow the SMILES beside them. No end group written: not given here. ξ: configuration not given here. dBip = N[C@H](Cc1ccc(-c2ccccc2)cc1)C(=O)O; Oic = O=C(O)[C@@H]1C[C@@H]2CCCC[C@@H]2N1; Phe(4-Cl) = N[C@@H](Cc1ccc(Cl)cc1)C(=O)O; Oic(3aξ,7aξ) = O=C(O)[C@@H]1CC2CCCCC2N1; Phe(4-I) = N[C@@H](Cc1ccc(I)cc1)C(=O)O; hArg = N=C(N)NCCCC[C@H](N)C(=O)O; Cha = N[C@@H](CC1CCCCC1)C(=O)O; NMeL = CN[C@@H](CC(C)C)C(=O)O; Nle = CCCC[C@H](N)C(=O)O
Columns and labels:
[1] = test system: isolated perfused rat hearts; assay: Langendorff isolated perfused rat heart; settings: FIGS. 4A-D and 5A-D
Source text: To assess the hemodynamic cardiac function of the peptides, a Langendorff isolated heart system was used. The isolated heart from rat provides a broad spectrum of measurements that can include biochemical, metabolic, morphological and physiological indices. Although the system lacks neurohormonal influences, neural regulation and high coronary flows, the advantages of the system include the ability to study direct cardiac effects without systemic circulation and a host of peripheral interactions. This method can yield excellent dose-response relationships and provides critical insight into the pharmacological and physiological properties of the molecules of interest.
Animals were anesthetized through administration of 50-100 mg/kg dose of sodium pentobarbital via the intraperitoneal route. The heart was excised and gently cradled between fingers to avoid injury followed by lifting slightly before incising the aorta, vena cava and pulmonary vessels. Immediately after excision of the heart with aorta, the heart was mounted onto the cannula in the Langendorff apparatus via the aorta. […] The pressure was measured through a pressure sensing balloon catheter inserted in the left ventricular cavity. The intrinsic inotropy (force of muscle contraction) and lusitropy (cardiac relaxation) effects of the heart were assessed by dp/dtmax and dp/dtmin.

liver homogenate = settings: rat, 37° C., up to 4 hr
kidney homogenate = settings: rat, 37° C., up to 4 hr
[2] = test system: rats with myocardial infarction (MI)-induced heart failure; assay: Hemodynamics in rats with MI-induced heart failure (Millar PV loop); format: in vivo, Lewis rats; settings: continuous i.v. infusion, 30 min per dose
Protocol: To assess the cardiovascular effects of modified apelin polypeptides, the polypeptides were administered to rats with myocardial infarction (MI)-induced heart failure. Cardiac function was assessed via the Millar PV loop system.
Male Lewis rats at 2-3 month of age were used for the studies. MI was induced by ligation of the left anterior descending coronary artery (LAD). Echocardiography was performed at 1 week post-MI for animal enrollment. If ejection fraction (EF) was more than 40% and no infarct was identified from echocardiography images, these animals were excluded from the study. A Millar PV loop catheter was inserted into the right common carotid artery and then advanced to the left ventricle (LV) for cardiovascular hemodynamic assessment. The arterial pressure catheter was inserted into a femoral artery for peripheral blood pressure monitoring. Experiments were performed six to seven weeks following induction of MI. The following apelin polypeptides were given intravenously via jugular vein at various doses.
Peptides were continuously infused for 30 min at each dose. At the end of the experiment, the infarct size was verified by gross morphology. FIGS. 6-8 show the results of these experiments. The infarct size (38-39% of LV) was very similar among groups. […] Contractility (dp/dt max), ejection fraction (EF), mean arterial pressure (MAP), and heart rate (HR) changes over baseline are reported at the end of the 30 min infusion period for each polypeptide.

[3] = In vitro stability in rat plasma; format: in vitro ADME
How it was run: (§1)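 Stability was followed for 4 hr at 37° C. after spiking peptides (5 μM final) into rat plasma and tissue homogenates. Methanol quench with internal standard preceded high resolution LC-MS.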

rat APJ receptor = target: T1, rat APJ receptor (Rattus norvegicus, UniProt Q9JHG3); assay: [35S] GTPγS assay, rat APJ receptor; format: biochemical; settings: rat APJ receptor, read-out: EC50 Rat APJ Receptor
T1 construct: expressed in transfected cells
T1 sequence (Q9JHG3 1-377): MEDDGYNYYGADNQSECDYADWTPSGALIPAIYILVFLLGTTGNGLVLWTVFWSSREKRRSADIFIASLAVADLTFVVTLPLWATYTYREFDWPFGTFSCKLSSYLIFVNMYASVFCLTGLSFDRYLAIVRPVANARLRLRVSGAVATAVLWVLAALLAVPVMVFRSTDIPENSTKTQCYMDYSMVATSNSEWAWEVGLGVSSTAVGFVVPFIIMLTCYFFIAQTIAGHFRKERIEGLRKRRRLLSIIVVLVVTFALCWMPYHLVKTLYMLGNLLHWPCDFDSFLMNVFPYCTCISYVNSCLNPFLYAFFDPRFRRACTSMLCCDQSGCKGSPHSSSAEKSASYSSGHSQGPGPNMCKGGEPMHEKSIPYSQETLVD
Protocol: The membranes were incubated with modified peptides in the assay buffer. […] Bound [^35S] GTPγS was separated from free radiolabel by filtration. The filter bound radioactivity was determined by liquid scintillation counting.

Human Mast Cells = assay: Mast cell degranulation (histamine release), human mast cells; format: cell-based; settings: human mast cells derived from CD34+ peripheral blood cells; 0.005 to 30 μM, 37° C., 30 min; less than 30% of total histamine content = negative
Protocol: Mast cell degranulation was measured for a number of the modified apelin polypeptides as follows in order to determine the potential immunogenic effect of the peptides. Mast cell degranulating peptide (MCDP) and compound 48/80 were used as positive controls. MCDP was obtained from Alomone Labs (Israel). Compound 48/80 was obtained from Sigma (Saint Louis, […].). Histamine Elisa kit was obtained from NEOGEN (Lexington, Ky.). Tyrode's buffer was obtained from Sigma (#T2397).
Mature human mast cells were derived from CD34+peripheral blood precursor cells after an 8-12 week differentiation/maturation process in vitro. […] Mast cell maturation was confirmed via expression of the mast cell markers c-kit and FcεRI via flow cytometry (>75% positive) and histamine release.
Mast cells (human or rat) were washed in Tyrode's buffer and seeded on 96-well plates (approx. 2000 mast cells/well). A 10 point dilution of test compounds were prepared in Tyrode's buffer and were incubated (0.005 to 30 μM) with mast cells at 37° C. for 30 min. […] A mast cell surfactant control is compared to a mast cell Tyrode's buffer control to ensure surfactants are not inducing histamine release in the absence of the lipidated molecule. Histamine release was quenched by placing the plates on ice for 5 min. Cells were centrifuged at 350×g at 4° C. for 5 min and the supernatant was collected. Released histamine was quantified by ELISA (Neogen Corporation) as per the kits' instruction. Briefly, the absorbance was measured at 650 nm in a microplate reader, following a direct competitive ELISA reaction with test samples compared against a standard curve. Total histamine content of the cells (0.1% Triton X-100) and spontaneous release were also measured to determine the percent of histamine release. Percent histamine release was calculated by the following formula: % histamine release=(ng/ml histamine release by test article−ng/ml spontaneous histamine release in Tyrode's buffer)/(ng/ml total histamine content of cells lysed in 0.1% Triton X-100−ng/ml spontaneous histamine release in Tyrode's buffer)×100.

[4] = In vitro stability in rat liver homogenate; format: in vitro ADME; settings: tissue homogenate
How it was run: as §1

[5] = In vitro stability in rat kidney homogenate; format: in vitro ADME; settings: rat, tissue homogenate
How it was run: as §1

[6] = test system: Rat Peritoneal Mast Cells

CC(=O)N[C@@H](CCC(N)=O)C(=O)N[C@@H](CCCCNC(=N)N)C(=O)N1CCC[C@H]1C(=O)N[C@H](CCCNC(=N)N)C(=O)N(C)[C@@H](CC(C)C)C(=O)N[C@@H](CO)C(=O)N[C@@H](Cc1c[nH]cn1)C(=O)N[C@@H](CCCCN)C(=O)NCC(=O)N1C2CCCCC2C[C@H]1C(=O)N[C@@H](Cc1ccc(I)cc1)C(=O)N1CCC[C@H]1C(=O)N[C@H](Cc1ccc(-c2ccccc2)cc1)C(=O)O (stereo partly drawn) [SEQ ID NO: 53, {Acetyl-NH}Q[hArg]Pr[NMeLeu]SHKG[Oic][pI-Phe]P[D-Bip]{COOH}] (Ac-Q[hArg]P[dR][NMeL]SHKG[Oic(3aξ,7aξ)][Phe(4-I)]P[dBip]-OH)
systolic and diastolic function in isolated perfused rat hearts [1]: dose-dependent improvement of both systolic and diastolic function

{TDA}[AC4Abu][Aeea][Aeea]RQRP[hArg][NMeLeu]SHKG[Oic][pI-Phe]P[D-Bip]{COOH}
not cleaved (liver homogenate): >90.0 % remaining at 4 hours | not cleaved (kidney homogenate): >90.0 % remaining at 4 hours

109 (QRP[hArg][Cha]SHKG[Oic][Nle]P[Phe(4-Cl)]-OH; not fully specified (N-terminus)) [compound 109]
hemodynamic function (dp/dt max, EF, MAP, HR) in MI rats [2]: dose-dependent effects

{H2} [MerPr] (10K mPEG acetamide) Q R [aMePro] [hArg] [aMeLeu] S H K G P [Nle] P [4-Cl-F] {COOH}
not cleaved (liver homogenate): >90.0 % remaining at 4 hours | not cleaved (kidney homogenate): >90.0 % remaining at 4 hours

CC(=O)N[C@@H](CCCCNC(=N)N)C(=O)N[C@H](CCCNC(=N)N)C(=O)N[C@@H](CCC(N)=O)C(=O)N[C@@H](CCCCNC(=N)N)C(=O)N1CCC[C@H]1C(=O)N[C@H](CCCNC(=N)N)C(=O)N(C)[C@@H](CC(C)C)C(=O)N[C@@H](CO)C(=O)N[C@@H](Cc1c[nH]cn1)C(=O)N[C@@H](CCCCN)C(=O)NCC(=O)N1C2CCCCC2C[C@H]1C(=O)N[C@@H](Cc1ccc(I)cc1)C(=O)N1CCC[C@H]1C(=O)N[C@H](Cc1ccc(-c2ccccc2)cc1)C(=O)O (stereo partly drawn) [SEQ ID NO: 16, Acetyl-[hArg][r]Q[hArg]P[r][NMeLeu]SHKG[Oic][pI-Phe]P[D-Bip]{COOH}] (Ac-[hArg][dR]Q[hArg]P[dR][NMeL]SHKG[Oic(3aξ,7aξ)][Phe(4-I)]P[dBip]-OH)
systolic and diastolic function in isolated perfused rat hearts [1]: dose-dependent improvement of both systolic and diastolic function

CCCC[C@H](NC(=O)[C@@H]1CCCN1C(=O)CNC(=O)[C@H](CCCCN)NC(=O)[C@H](Cc1c[nH]cn1)NC(=O)[C@H](CO)NC(=O)[C@H](CC(C)C)NC(=O)[C@H](CCCNC(=N)N)N(C)C(=O)[C@@H]1CCCN1C(=O)[C@H](CCCNC(=N)N)NC(=O)[C@H](CCC(N)=O)NC(C)=O)C(=O)N1CCC[C@H]1C(=O)N[C@@H](Cc1ccc(Cl)cc1)C(=O)O [compound 68]
remaining at 4 h, 5 μM [3]: 59.6% | EC50 (rat APJ receptor): 0.384 nM | Induce Histamine Release? Human Mast Cells (Human Mast Cells): No | remaining at 4 h, 5 μM [4]: < 1%

CCCCCCCCCCCCC(=O)N[C@@H](CCC(=O)NCCOCCOCC(=O)NCCOCCOCC(=O)N[C@@H](CCC(N)=O)C(=O)N[C@@H](CCCNC(=N)N)C(=O)N1CCC[C@H]1C(=O)N(C)[C@@H](CCCNC(=N)N)C(=O)N[C@@H](CC(C)C)C(=O)N[C@@H](CO)C(=O)N[C@@H](Cc1c[nH]cn1)C(=O)N[C@@H](CCCCN)C(=O)NCC(=O)N1CCC[C@H]1C(=O)N[C@@H](CCCC)C(=O)N1CCC[C@H]1C(=O)N[C@@H](Cc1ccc(Cl)cc1)C(=O)O)C(=O)O [compound 287]
remaining at 4 h, 5 μM [3]: 18% | Induce Histamine Release? Human Mast Cells (Human Mast Cells): Yes | remaining at 4 h, 5 μM [4]: < 1%

CC(=O)N[C@@H](CCCCNC(=N)N)C(=O)N[C@H](CCCNC(=N)N)C(=O)N[C@@H](CCC(N)=O)C(=O)N[C@@H](CCCCNC(=N)N)C(=O)N1CCC[C@H]1C(=O)N[C@H](CCCNC(=N)N)C(=O)N(C)[C@@H](CC(C)C)C(=O)N[C@@H](CO)C(=O)N[C@@H](Cc1c[nH]cn1)C(=O)N[C@@H](CCCCN)C(=O)NCC(=O)N1[C@H](C(=O)N[C@@H](Cc2ccc(I)cc2)C(=O)N2CCC[C@H]2C(=O)N[C@H](Cc2ccc(-c3ccccc3)cc2)C(=O)O)C[C@@H]2CCCC[C@@H]21 [compound 16] (Ac-[hArg][dR]Q[hArg]P[dR][NMeL]SHKG[Oic][Phe(4-I)]P[dBip]-OH)
remaining at 4 h, 5 μM [3]: 86.1% | hemodynamic function (dp/dt max, EF, MAP, HR) in MI rats [2]: dose-dependent effects | remaining at 4 h, 5 μM [5]: 44.5% | remaining at 4 h, 5 μM [4]: 40.7%

CSCC[C@H](NC(=O)[C@@H]1CCCN1C(=O)CNC(=O)[C@H](CCCCN)NC(=O)[C@H](Cc1cnc[nH]1)NC(=O)[C@H](CO)NC(=O)[C@H](CC(C)C)NC(=O)[C@H](CCCNC(=N)N)NC(=O)[C@@H]1CCCN1C(=O)[C@H](CCCNC(=N)N)NC(=O)[C@@H]1CCC(=O)N1)C(=O)N1CCC[C@H]1C(=O)N[C@@H](Cc1ccccc1)C(=O)O [SEQ ID NO: 6, reference compound]
Cause Histamine Release? [6]: No | hemodynamic function (dp/dt max, EF, MAP, HR) in MI rats [2]: dose-dependent effects

From patent publication US11807693B2 (priority 2014, dated 2023)
